Data published in publication PMC9005681, “Use of AD Informer Set compounds to explore validity of novel targets in Alzheimer's disease pathology” (Alzheimer's & Dementia : Translational Research & Clinical …, 2022).
Where “and” joins values, the source holds several entries; their conditions need not be identical. Equal values may be shown once.

Legend:
Assay in all cases: PDSP GPCR panel primary binding assays at 10 μM
[1] = target: T1, cloned human or rodent CNS receptors, channels, and transporters (PDSP panel) (Homo sapiens, UniProt P14416); conditions: D2, primary assay
T1 construct: expressed in transfected cells
Procedure, shortened: (§1)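 PDSP panel of 46–47 cloned human or rodent CNS receptors, channels and transporters; radioligand displacement by compound at 10 μM, in quadruplicate. Where average displacement exceeded 50%, secondary binding followed as 11-point dose-response in triplicate (none for H3, PBR or GABAA).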

[2] = target: T2, cloned human or rodent CNS receptors, channels, and transporters (PDSP panel) (Homo sapiens, UniProt P23975); conditions: NET, primary assay
T2 construct: expressed in transfected cells
Procedure, shortened: as §1

[3] = target: T3, cloned human or rodent CNS receptors, channels, and transporters (PDSP panel) (Homo sapiens, UniProt P25100); conditions: Alpha1D, primary assay
T3 construct: expressed in transfected cells
T3 sequence (P25100 1-572): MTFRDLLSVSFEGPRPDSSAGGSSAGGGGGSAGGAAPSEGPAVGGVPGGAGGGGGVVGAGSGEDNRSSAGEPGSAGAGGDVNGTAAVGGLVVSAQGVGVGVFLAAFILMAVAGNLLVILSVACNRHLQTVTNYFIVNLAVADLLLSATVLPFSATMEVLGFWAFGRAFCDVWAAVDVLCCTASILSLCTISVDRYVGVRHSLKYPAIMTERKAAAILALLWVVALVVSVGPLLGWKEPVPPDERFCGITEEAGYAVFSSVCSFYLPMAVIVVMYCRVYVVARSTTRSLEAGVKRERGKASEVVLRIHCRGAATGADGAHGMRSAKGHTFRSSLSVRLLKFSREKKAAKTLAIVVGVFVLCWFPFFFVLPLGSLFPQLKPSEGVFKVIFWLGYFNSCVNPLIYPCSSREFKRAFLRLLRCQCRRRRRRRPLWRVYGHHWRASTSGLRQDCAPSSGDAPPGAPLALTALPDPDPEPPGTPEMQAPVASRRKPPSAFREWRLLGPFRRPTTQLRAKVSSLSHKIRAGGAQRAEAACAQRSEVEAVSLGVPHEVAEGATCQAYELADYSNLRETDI
Procedure, shortened: as §1

[4] = target: T4, cloned human or rodent CNS receptors, channels, and transporters (PDSP panel) (Homo sapiens, UniProt P28221); conditions: 5-HT1D, primary assay
T4 construct: expressed in transfected cells
Procedure, shortened: as §1

[5] = target: T5, cloned human or rodent CNS receptors, channels, and transporters (PDSP panel) (Homo sapiens, UniProt P31645); conditions: SERT, primary assay
T5 construct: expressed in transfected cells
Procedure, shortened: as §1

[6] = target: T6, cloned human or rodent CNS receptors, channels, and transporters (PDSP panel) (Homo sapiens, UniProt P35367); conditions: H1, primary assay
T6 construct: expressed in transfected cells
Procedure, shortened: as §1

[7] = target: T7, cloned human or rodent CNS receptors, channels, and transporters (PDSP panel) (Homo sapiens, UniProt P41595); conditions: 5-HT2B, primary assay
T7 construct: expressed in transfected cells
Procedure, shortened: as §1

[8] = test system: cloned human or rodent CNS receptors, channels, and transporters (PDSP panel); conditions: primary assay; for Mean %: mean inhibition; for Inhibition 1: replicate 1; for Inhibition 2: replicate 2; for Inhibition 3: replicate 3; for Inhibition 4: replicate 4
Procedure, shortened: as §1

T7 sequence (P41595 whole entry): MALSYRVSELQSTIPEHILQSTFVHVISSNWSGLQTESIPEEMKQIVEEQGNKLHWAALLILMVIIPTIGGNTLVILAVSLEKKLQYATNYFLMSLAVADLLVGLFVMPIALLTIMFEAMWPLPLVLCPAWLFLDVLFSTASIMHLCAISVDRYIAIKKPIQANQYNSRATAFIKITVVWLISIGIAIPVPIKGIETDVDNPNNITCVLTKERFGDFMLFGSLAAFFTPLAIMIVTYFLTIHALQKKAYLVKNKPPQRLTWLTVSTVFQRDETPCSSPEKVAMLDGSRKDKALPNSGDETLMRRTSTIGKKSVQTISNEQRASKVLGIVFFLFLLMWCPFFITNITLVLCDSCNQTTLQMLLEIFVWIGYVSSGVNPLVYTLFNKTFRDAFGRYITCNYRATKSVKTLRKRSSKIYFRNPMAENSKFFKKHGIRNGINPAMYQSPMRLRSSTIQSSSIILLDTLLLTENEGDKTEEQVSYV
T1 sequence (P14416 whole entry): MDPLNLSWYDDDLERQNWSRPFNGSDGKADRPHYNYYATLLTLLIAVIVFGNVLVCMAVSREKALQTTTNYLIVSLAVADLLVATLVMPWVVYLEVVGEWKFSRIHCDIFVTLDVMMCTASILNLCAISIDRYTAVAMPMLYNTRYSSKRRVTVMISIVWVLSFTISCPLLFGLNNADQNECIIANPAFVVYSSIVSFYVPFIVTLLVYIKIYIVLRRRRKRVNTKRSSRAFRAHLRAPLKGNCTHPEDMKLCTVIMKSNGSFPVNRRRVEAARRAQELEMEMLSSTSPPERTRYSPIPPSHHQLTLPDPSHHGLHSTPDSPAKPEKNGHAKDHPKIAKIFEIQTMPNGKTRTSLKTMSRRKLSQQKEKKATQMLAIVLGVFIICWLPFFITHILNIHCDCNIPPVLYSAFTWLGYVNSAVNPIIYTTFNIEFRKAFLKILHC
T6 sequence (P35367 whole entry): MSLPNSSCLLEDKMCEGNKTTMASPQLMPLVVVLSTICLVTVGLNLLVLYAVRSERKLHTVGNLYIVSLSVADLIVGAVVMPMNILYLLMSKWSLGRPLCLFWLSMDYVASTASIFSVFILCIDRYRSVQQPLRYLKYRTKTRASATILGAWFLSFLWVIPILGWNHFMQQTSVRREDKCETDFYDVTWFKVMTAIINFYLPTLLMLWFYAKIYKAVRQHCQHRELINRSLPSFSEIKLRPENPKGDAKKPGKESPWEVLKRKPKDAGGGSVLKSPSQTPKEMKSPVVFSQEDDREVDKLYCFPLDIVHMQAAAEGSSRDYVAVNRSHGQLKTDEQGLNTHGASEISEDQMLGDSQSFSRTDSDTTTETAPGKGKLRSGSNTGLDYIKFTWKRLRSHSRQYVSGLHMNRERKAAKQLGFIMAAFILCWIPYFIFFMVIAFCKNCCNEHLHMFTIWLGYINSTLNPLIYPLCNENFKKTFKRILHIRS
T2 sequence (P23975 whole entry): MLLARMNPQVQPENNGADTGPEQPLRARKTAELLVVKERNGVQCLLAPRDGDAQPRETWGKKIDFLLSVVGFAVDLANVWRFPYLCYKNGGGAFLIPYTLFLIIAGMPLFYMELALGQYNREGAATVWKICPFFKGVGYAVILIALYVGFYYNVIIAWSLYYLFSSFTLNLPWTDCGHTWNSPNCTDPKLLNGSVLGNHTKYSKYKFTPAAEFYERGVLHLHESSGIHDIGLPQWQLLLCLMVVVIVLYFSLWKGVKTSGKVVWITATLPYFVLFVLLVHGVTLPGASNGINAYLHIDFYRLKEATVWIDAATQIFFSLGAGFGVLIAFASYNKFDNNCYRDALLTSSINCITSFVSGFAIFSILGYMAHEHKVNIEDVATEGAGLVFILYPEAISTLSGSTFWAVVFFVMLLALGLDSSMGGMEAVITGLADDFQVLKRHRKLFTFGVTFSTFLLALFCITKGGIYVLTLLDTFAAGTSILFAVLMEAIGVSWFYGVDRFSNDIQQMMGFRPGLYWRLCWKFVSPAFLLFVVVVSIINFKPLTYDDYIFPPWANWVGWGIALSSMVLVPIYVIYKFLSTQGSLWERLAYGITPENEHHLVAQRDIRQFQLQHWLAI
T4 sequence (P28221 whole entry): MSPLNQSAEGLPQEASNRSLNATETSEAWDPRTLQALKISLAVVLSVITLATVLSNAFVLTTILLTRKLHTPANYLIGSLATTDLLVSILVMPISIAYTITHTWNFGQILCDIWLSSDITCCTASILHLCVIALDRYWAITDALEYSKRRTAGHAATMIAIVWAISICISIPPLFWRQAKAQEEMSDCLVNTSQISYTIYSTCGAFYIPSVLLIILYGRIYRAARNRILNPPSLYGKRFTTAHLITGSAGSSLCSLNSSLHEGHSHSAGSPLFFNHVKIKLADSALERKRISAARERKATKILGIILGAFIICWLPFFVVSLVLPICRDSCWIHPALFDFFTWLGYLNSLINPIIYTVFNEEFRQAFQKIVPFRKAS
T5 sequence (P31645 whole entry): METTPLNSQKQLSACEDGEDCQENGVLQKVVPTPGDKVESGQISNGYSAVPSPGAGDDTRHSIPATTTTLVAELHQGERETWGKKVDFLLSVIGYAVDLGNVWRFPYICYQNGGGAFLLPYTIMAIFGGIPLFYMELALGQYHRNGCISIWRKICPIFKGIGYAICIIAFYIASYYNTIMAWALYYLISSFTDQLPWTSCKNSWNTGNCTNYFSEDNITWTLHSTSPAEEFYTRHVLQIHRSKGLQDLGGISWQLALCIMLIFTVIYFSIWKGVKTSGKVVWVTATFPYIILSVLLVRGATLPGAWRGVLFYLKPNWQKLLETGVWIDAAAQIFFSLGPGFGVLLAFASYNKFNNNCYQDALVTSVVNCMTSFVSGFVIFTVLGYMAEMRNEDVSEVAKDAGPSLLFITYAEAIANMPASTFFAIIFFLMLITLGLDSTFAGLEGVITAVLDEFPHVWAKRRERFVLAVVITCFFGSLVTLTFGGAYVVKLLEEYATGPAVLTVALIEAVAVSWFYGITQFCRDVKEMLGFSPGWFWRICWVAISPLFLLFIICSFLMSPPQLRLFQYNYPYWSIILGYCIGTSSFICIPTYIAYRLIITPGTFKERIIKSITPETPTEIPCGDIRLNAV

Q: With `O=C(NC1CC1)C(=O)C(Cc1ccccc1)NC(=O)[C@H]1CCC(=O)N1Cc1ccccc1` (stereo partly drawn) [UNC10302676A, ABT-957 (Alicapistat)] as the compound, how does the Mean % ([1]; mean inhibition) read?
A: -21.21%

Q: And the “Inhibition 1” value ([1]; replicate 1)?
A: -14.25%

Q: What about the “Inhibition 2” value ([1]; replicate 2) of the same compound?
A: -31.51%

Q: What about the “Inhibition 3” value ([1]; replicate 3) of the same compound?
A: -11.38%

Q: What about the “Inhibition 4” value ([1]; replicate 4) of the same compound?
A: -27.71%

Q: And the “Inhibition 1” value ([2]; replicate 1)?
A: 22.45% and -0.84%

Q: What about the “Inhibition 2” value ([2]; replicate 2) of the same compound?
A: -3.8% and -22.08%

Q: And the “Inhibition 3” value ([2]; replicate 3)?
A: -17.85% and -14.66%

Q: What about the “Inhibition 4” value ([2]; replicate 4) of the same compound?
A: -11.29% and -22.96%

Q: What about the Mean % ([3]; mean inhibition) of the same compound?
A: -2.1%

Q: And the “Inhibition 1” value ([3]; replicate 1)?
A: 4.8%

Q: And the “Inhibition 2” value ([3]; replicate 2)?
A: -9.7%

Q: And the “Inhibition 3” value ([3]; replicate 3)?
A: -4.72%

Q: And the “Inhibition 4” value ([3]; replicate 4)?
A: 1.24%

Q: What about the Mean % ([4]; mean inhibition) of the same compound?
A: 14.89%

Q: And the “Inhibition 1” value ([4]; replicate 1)?
A: 25.3%

Q: What about the “Inhibition 2” value ([4]; replicate 2) of the same compound?
A: 16.14%

Q: And the “Inhibition 3” value ([4]; replicate 3)?
A: 8.22%

Q: And the “Inhibition 4” value ([4]; replicate 4)?
A: 9.89%

Q: What about the Mean % ([5]; mean inhibition) of the same compound?
A: -3.96% and -1.74%

Q: And the “Inhibition 1” value ([5]; replicate 1)?
A: 1.77% and -7.1%

Q: What about the “Inhibition 2” value ([5]; replicate 2) of the same compound?
A: -9.07% and 1.55%

Q: What about the “Inhibition 3” value ([5]; replicate 3) of the same compound?
A: -5.87% and 7.1%

Q: What about the “Inhibition 4” value ([5]; replicate 4) of the same compound?
A: -2.67% and -8.51%

Q: And the Mean % ([6]; mean inhibition)?
A: 47.25%

Q: And the “Inhibition 1” value ([6]; replicate 1)?
A: 60.11%

Q: And the “Inhibition 2” value ([6]; replicate 2)?
A: 50.46%

Q: What about the “Inhibition 3” value ([6]; replicate 3) of the same compound?
A: 44.57%

Q: What about the “Inhibition 4” value ([6]; replicate 4) of the same compound?
A: 33.86%

Q: What about the Mean % ([7]; mean inhibition) of the same compound?
A: -32.15%

Q: What about the “Inhibition 1” value ([7]; replicate 1) of the same compound?
A: -14.32%

Q: What about the “Inhibition 2” value ([7]; replicate 2) of the same compound?
A: -33.19%

Q: And the “Inhibition 3” value ([7]; replicate 3)?
A: -45.78%

Q: And the “Inhibition 4” value ([7]; replicate 4)?
A: -35.29%

Q: What about the Mean % ([8]; Alpha1A) of the same compound?
A: -18.33%

Q: And the “Inhibition 1” value ([8]; Alpha1A)?
A: -14.03%

Q: What about the “Inhibition 2” value ([8]; Alpha1A) of the same compound?
A: -31.43%

Q: What about the “Inhibition 3” value ([8]; Alpha1A) of the same compound?
A: -21.43%

Q: What about the “Inhibition 4” value ([8]; Alpha1A) of the same compound?
A: -6.43%

Q: What about the Mean % ([8]; Alpha2A) of the same compound?
A: 5.04%

Q: And the “Inhibition 1” value ([8]; Alpha2A)?
A: 2.51%

Q: And the “Inhibition 2” value ([8]; Alpha2A)?
A: 2.44%

Q: What about the “Inhibition 3” value ([8]; Alpha2A) of the same compound?
A: -2.65%

Q: What about the “Inhibition 4” value ([8]; Alpha2A) of the same compound?
A: 17.86%

Q: And the Mean % ([8]; Alpha2C)?
A: -12.84%

Q: What about the “Inhibition 1” value ([8]; Alpha2C) of the same compound?
A: -8.12%

Q: And the “Inhibition 2” value ([8]; Alpha2C)?
A: -10.33%

Q: And the “Inhibition 3” value ([8]; Alpha2C)?
A: -21.43%

Q: And the “Inhibition 4” value ([8]; Alpha2C)?
A: -11.46%

Q: And the Mean % ([8]; BZP Rat Brain Site)?
A: 3.75%

Q: And the “Inhibition 1” value ([8]; BZP Rat Brain Site)?
A: 19.6%

Q: And the “Inhibition 2” value ([8]; BZP Rat Brain Site)?
A: -1.35%

Q: And the “Inhibition 3” value ([8]; BZP Rat Brain Site)?
A: -4.1%

Q: And the “Inhibition 4” value ([8]; BZP Rat Brain Site)?
A: 0.83%

Q: And the Mean % ([8]; DOR)?
A: -6.76%

Q: And the “Inhibition 1” value ([8]; DOR)?
A: 2.73%

Q: What about the “Inhibition 2” value ([8]; DOR) of the same compound?
A: -0.34%

Q: What about the “Inhibition 3” value ([8]; DOR) of the same compound?
A: -9.56%

Q: And the “Inhibition 4” value ([8]; DOR)?
A: -19.86%

Q: And the “Inhibition 1” value ([8]; GABAA)?
A: 23.2% and -15.74%

Q: What about the “Inhibition 2” value ([8]; GABAA) of the same compound?
A: 18.02% and -7.64%

Q: And the “Inhibition 3” value ([8]; GABAA)?
A: -2.68% and 0%

Q: What about the “Inhibition 4” value ([8]; GABAA) of the same compound?
A: 4.71% and -21.69%

Q: And the Mean % ([8]; H3)?
A: -14.21%

Q: What about the “Inhibition 1” value ([8]; H3) of the same compound?
A: -25.14%

Q: What about the “Inhibition 2” value ([8]; H3) of the same compound?
A: -2.99%

Q: And the “Inhibition 3” value ([8]; H3)?
A: -42.04%

Q: What about the “Inhibition 4” value ([8]; H3) of the same compound?
A: 13.33%

Q: What about the Mean % ([8]; H4) of the same compound?
A: -11.52%

Q: And the “Inhibition 1” value ([8]; H4)?
A: -3.78%

Q: And the “Inhibition 2” value ([8]; H4)?
A: -13.62%

Q: What about the “Inhibition 3” value ([8]; H4) of the same compound?
A: -23.94%

Q: And the “Inhibition 4” value ([8]; H4)?
A: -4.74%

Q: And the Mean % ([8]; Sigma 1)?
A: -2.52%

Q: And the Mean % ([8]; Sigma 2)?
A: 7.31%
